Test results taken from patent US3980646A, “3-Methylpyrazole-5-carboxylates and medicaments containing these compounds” (Wulfing; Johann A., priority 1974, dated 1976).
“And” between values parts separate entries of the source, which are not always exact repeats. Equal values may be shown once. “Also recorded” adds a separate entry of the source.

What was measured:
Triglycerides = assay: triglycerides in hyperlipacidaemic rats treated with octylphenol polyethylene glycolether; assay type: in vivo, Male rats (Wistar)
Description: Male rats, starve for 22 hours, ether narcosis, heart puncture
Dose: 1000 mg/kg of octylphenyl polyethylene glycolether i.v.
6 hours before blood removal
Dose: 100 mg/kg of 7-[3-(N-methyl-N-2-hydroxyethyl)-amino-2-
hydroxypropyl]-1,3-dimethylxanthine-3-methylpyrazole-5-
carboxylate by esophagus probe, 6 hours, 4 hours and
2 hours before blood removal

[1] = general pharmacological effects (lipolysis inhibition, lipid lowering, tachyphylaxis, toxicity); assay type: in vivo
serum triglycerides (TG) = assay: influence on the serum triglycerides (TG) in normal animals; assay type: in vivo, Rats (Wistar); conditions: for TG: starve for 5 hours; for TG, mean (x): 1 hour
Description: Rats, starve for 5 hours
40 mg/kg body weight of active principle according to
the invention, oral by esophagus probe 1 hour before
12 mg/kg body weight of 3-methylpyrazole-5-carboxylic
acid, equim. dosage, 1 hour before removal of blood
Dose: 10 mg/kg body weight of active principle according to the
invention, oral by esophagus probe 1 hour before blood removal
Dose: 3 mg/kg body weight of 3-methylpyrazole-5-carboxylic acid,
equim. dosage, oral by esophagus probe 1 hour before

free fatty acids (FFS) = assay: influence on the free fatty acids (FFS) in starved (hyperlipacidaemic) animals, hunger lipolysis; assay type: in vivo, rats (Wistar)
Description: Investigations on a total of 260 Wistarrats were conducted with 7-[3-(N-methyl-N-2-hydroxyethyl)-amino-2-hydroxypropyl]-1,3-dimethylxanthine-3-methylpyrazole-5-carboxylate.
Examination of the influence of 7-[3-(N-methyl-N-2-hydroxy-
ethyl)-amino-2-hydroxypropyl]-1,3-dimethylxanthine-3-methyl-
pyrazole-5-carboxylate on the serum fatty acids (FFS) of
Male Rats, starve for 17 hours
Dose: 100 mg/kg body weight, oral by esophagus probe,
Blood removal: 1 hour after application
pyrazole-5-carboxylate on the free fatty acids (FFS) in
starved animals 1 hour after application
Comparative examinations of the influence of 7-[3-(N-methyl-
carboxylic acid on the free fatty acids (FFS) in starved
animals 1 hour after application
pyrazole-5-carboxylic acid on the free fatty acids (FFS)
in starved animals 6 hours after application

serum triglycerides = assay: influence on the serum triglycerides of repeated application; assay type: in vivo, rats male (Wistar); conditions: for serum triglycerides: individual animals, starve for 5 hours, 100 mg/kg
Description: Influence on the serum triglycerides of repeated application of
100 mg/kg x/day p.o. rats male, starve for 5 hours, ether narcosis, heart
last application 1 hour before killing (cf. FIG. 3)

CN(CCO)CC(O)Cn1cnc2c1c(=O)n(C)c(=O)n2C.Cc1cc(C(=O)O)[nH]n1 (stereo not drawn) [7-[3-(N-methyl-N-2-hydroxyethyl)-amino-2-hydroxypropyl]-1,3-dimethylxanthine-3-methylpyrazole-5-carboxylate]
triglyceride level (Triglycerides; hyperlipacidaemic rats, result in words): significant reduction in the triglyceride level
TG (Triglycerides; individual animals, octylphenol polyethylene glycolether 1000 mg/kg i.v. 6 hours before, 100 mg/kg per os 6, 4 and 2 hours before killing): 644.4 mg % and 687.4 mg % and 701.6 mg % and 707.4 mg % and 610.0 mg % and 703.1 mg % and 695.9 mg % and 711.7 mg %
TG, mean (x) (Triglycerides; mean, octylphenol polyethylene glycolether 1000 mg/kg i.v., 100 mg/kg per os 6, 4 and 2 hours before killing, control x = 777.2, p<0.001): 687.0 mg %
influence on free fatty acids (FFS) ([1]; doses down to 2 mg/kg, normal and hyperlipacidaemic rats (starved animals, alcohol animals)): significantly influences the free fatty acids (FFS)
effect (lipolysis inhibition, reducing triglyceride and cholesterol level, low toxicity) ([1]; result in words): particularly marked effect
TG (serum triglycerides (TG); Table 7, individual animals, 40 mg/kg oral 1 hour before removal of blood, 40 mg/kg): 71.6 mg % and 22.9 mg % and 15.8 mg % and 18.6 mg % and 41.5 mg % and 40.1 mg % and 58.7 mg % and 32.9 mg % and 45.8 mg %
TG, mean (x) (serum triglycerides (TG); Table 7, mean, 40 mg/kg oral, control x = 66.4, p<0.0027>Ko): 36.3 mg %
TG (serum triglycerides (TG); Table 8, individual animals, 10 mg/kg oral 1 hour before blood removal, 10 mg/kg): 48.7 mg % and 54.4 mg % and 83.1 mg % and 55.8 mg % and 74.4 mg % and 81.6 mg % and 51.5 mg % and 40.1 mg %
TG, mean (x) (serum triglycerides (TG); Table 8, mean, 10 mg/kg oral, control x = 86.3, p<0.05>Ko): 59.8 mg %
serum triglyceride level of normal animals (serum triglycerides (TG); doses down to 10 mg/kg, result in words): significantly reduces the serum triglyceride level
FFS (free fatty acids (FFS); Table 2, individual animals, male rats, starve for 17 hours, 100 mg/kg oral, 1 hour, 100 mg/kg): 0.29 μval/ml and 0.34 μval/ml and 0.54 μval/ml and 0.47 μval/ml and 0.67 μval/ml and 0.46 μval/ml and 0.44 μval/ml and 0.43 μval/ml and 0.39 μval/ml and 0.48 μval/ml and 0.51 μval/ml and 0.45 μval/ml
FFS, mean (φ) (free fatty acids (FFS); Table 2, mean, male rats, starve for 17 hours, 100 mg/kg oral, 1 hour, control φ 0.91, p<0.001): 0.46 μval/ml
FFS (free fatty acids (FFS); Table 4 dose-effect, starved animals, 1 hour, 2.0 mg/kg, n 10, control 0.87, ***p<0.001): 0.51 μval/ml
FFS (free fatty acids (FFS); Table 4 dose-effect, starved animals, 1 hour, 2.5 mg/kg, n 13, control 0.86): 0.50 μval/ml
FFS (free fatty acids (FFS); Table 4 dose-effect, starved animals, 1 hour, 5 mg/kg, n 5, control 0.83): 0.43 μval/ml
FFS (free fatty acids (FFS); Table 4 dose-effect, starved animals, 1 hour, 10 mg/kg, n 10, control 0.97): 0.53 μval/ml
FFS (free fatty acids (FFS); Table 4 dose-effect, starved animals, 1 hour, 20 mg/kg, n 5, control 0.90): 0.56 μval/ml
FFS (free fatty acids (FFS); Table 4 dose-effect, starved animals, 1 hour, 30 mg/kg, n 4, control 1.02): 0.54 μval/ml
FFS (free fatty acids (FFS); Table 4 dose-effect, starved animals, 1 hour, 40 mg/kg, n 5, control 1.02): 0.48 μval/ml
FFS (free fatty acids (FFS); Table 4 dose-effect, starved animals, 1 hour, 50 mg/kg, n 10, control 1.08, **p<0.001): 0.40 μval/ml
FFS (free fatty acids (FFS); Table 4 dose-effect, starved animals, 1 hour, 100 mg/kg, n 15, control 0.91, *p<0.001): 0.46 μval/ml
FFS (free fatty acids (FFS); Table 5, individual animals, starved, 1 hour after application, 50 mg/kg): 0.39 μval/ml and 0.44 μval/ml and 0.46 μval/ml and 0.40 μval/ml and 0.35 μval/ml and 0.45 μval/ml and 0.37 μval/ml and 0.32 μval/ml and 0.41 μval/ml
FFS, mean (free fatty acids (FFS); Table 5, mean, n=10, starved, 1 hour after application, 50 mg/kg, control 1.08, p<0.001): 0.40 μval/ml
FFS (free fatty acids (FFS); Table 6, individual animals, starved, 6 hours after application, 50 mg/kg BW p.o., 50 mg/kg): 0.39 μval/ml and 0.35 μval/ml and 0.43 μval/ml and 0.58 μval/ml and 0.54 μval/ml and 0.63 μval/ml and 0.77 μval/ml and 0.52 μval/ml and 0.51 μval/ml and 0.96 μval/ml and 0.59 μval/ml and 0.78 μval/ml and 0.53 μval/ml and 0.44 μval/ml and 0.64 μval/ml and 0.85 μval/ml and 0.32 μval/ml
FFS, mean (x) (free fatty acids (FFS); Table 6, mean, n=21, starved, 6 hours after application, 50 mg/kg BW p.o., control 0.86, p<0.001): 0.57 μval/ml
lipolysis-inhibiting effect compared with free 3-methylpyrazole-5-carboxylic acid (free fatty acids (FFS); equimolar dosage, especially 6 hours after application): more pronounced than that of the free 3-methylpyrazole-5-carboxylic acid
effect on the serum triglycerides on repeated application (serum triglycerides; 100 mg/kg over 4 days, result in words): uniform and, in some cases, even increased effect; also recorded: still significantly reduced
serum triglycerides (serum triglycerides; 1st day, 100 mg/kg x/day p.o.): 85.9 mg% and 57.3 mg% and 118.6 mg% and 104.5 mg% and 65.9 mg% and 88.8 mg%
serum triglycerides, mean (x10) (serum triglycerides; 1st day, mean, 100 mg/kg x/day p.o., control 133.6): 82.6 mg%
serum triglycerides (serum triglycerides; 2nd day, 100 mg/kg x/day p.o.): 38.7 mg% and 61.6 mg% and 54.4 mg% and 63.0 mg% and 95.9 mg% and 87.3 mg% and 127.4 mg% and 74.4 mg% and 57.2 mg% and 88.7 mg%
